# Results reported in patent publication US11008325B2, “Inhibitors of cancer invasion, attachment, and/or metastasis” (VIRGINIA COMMONWEALTH UNIVERSITY, priority 2016, dated 2021).
# Entries after “also recorded” stand apart in the source; their conditions may differ. Like-named read-outs stand apart in the source and are kept apart here.
# Legend:
# [1] = pharmacokinetics after IV and IP administration; assay type: in vivo, Balb/c mice; settings: for concentration at 0.25 h: 0.250 h
# [2] = tested on: GBM6 cells; experiment: orthotopic GBM6 xenograft model; assay type: in vivo, mice
# Protocol: FIGS. 13A-13E. Effect of PDZ1i on survival in an in vivo model of glioma. GBM6 cells were pretreated for 2 hrs prior to intracranial injection with vehicle (DMSO) or PDZ1i and after 7 days, brain tissue was isolated and sectioned at injection site. FIG. 13A, brain tissue at site of injection of DMSO treated cells; FIG. 13B, brain tissue are site of injection of PDZ1i treated cells. 7 days after tumor implantation, mice received either vehicle or PDZ1i (30 mg/kg) three times per week for 3 weeks. Brain tissue was isolated and analyzed via H&E stain, FIG. 13C, brain tissue from mice treated with vehicle; FIG. 13D, brain tissue from mice treated with PDZ1i. FIG. 13E, Kaplan-Myer curves of these groups based on animal survival. **p<0.01.
# PDZ1i is effective in reducing tumor invasion in an animal model of GBM. To test the efficacy of PDZ1i, we used an orthotopic xenograft model with GBM6 cells that were pretreated with either DMSO or PDZ1i and injected intracranially to form tumors. Seven d post injection tumor and brain tissue were isolated for sectioning. […] Separately, untreated cells were injected and tumors established, then mice were treated IP with either DMSO or PDZ1i (30 mg/kg) three times per wk for two wk. […]
# [3] = target: T1, MDA-9/Syntenin and c-Src interactions (Homo sapiens, UniProt O00560); experiment: co-immunoprecipitation in C8161.9 cells; assay type: cell-based
# T1 construct: endogenous in cells; host or cells: C8161.9 melanoma cells
# T1 sequence (O00560 2-298 limits assumed): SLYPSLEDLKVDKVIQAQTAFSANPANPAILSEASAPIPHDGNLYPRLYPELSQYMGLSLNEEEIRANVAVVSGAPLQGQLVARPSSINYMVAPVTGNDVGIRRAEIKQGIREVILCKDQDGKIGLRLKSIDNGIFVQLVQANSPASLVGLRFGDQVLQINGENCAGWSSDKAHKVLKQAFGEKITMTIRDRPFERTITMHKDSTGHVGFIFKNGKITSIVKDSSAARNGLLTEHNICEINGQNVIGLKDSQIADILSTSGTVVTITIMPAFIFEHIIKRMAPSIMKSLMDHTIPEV
# T1 sequence (P12931 2-536 partner limits assumed): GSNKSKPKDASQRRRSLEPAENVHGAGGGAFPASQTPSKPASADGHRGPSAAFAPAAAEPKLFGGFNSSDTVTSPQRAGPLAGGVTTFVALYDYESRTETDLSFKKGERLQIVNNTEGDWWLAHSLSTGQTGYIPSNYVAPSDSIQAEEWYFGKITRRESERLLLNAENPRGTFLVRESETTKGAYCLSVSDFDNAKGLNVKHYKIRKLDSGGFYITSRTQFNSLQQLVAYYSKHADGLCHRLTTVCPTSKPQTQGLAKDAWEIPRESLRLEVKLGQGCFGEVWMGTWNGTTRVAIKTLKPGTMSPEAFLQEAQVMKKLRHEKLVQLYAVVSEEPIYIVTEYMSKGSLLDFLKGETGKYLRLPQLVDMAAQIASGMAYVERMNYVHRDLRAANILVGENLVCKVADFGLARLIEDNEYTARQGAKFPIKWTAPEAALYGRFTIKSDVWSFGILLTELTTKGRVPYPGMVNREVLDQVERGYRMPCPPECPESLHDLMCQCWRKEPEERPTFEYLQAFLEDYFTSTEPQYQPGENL
# Protocol: FIG. 54. Effects of PDZ1in (113B7) on MDA-9/Syntenin and c-Src interactions. C8161.9 cells were pre-treated with either DMSO or a dose of 113B7 (as indicated) and re-plated onto fibronectin-coated plates. After 30 minutes, cell lysates were immunoprecipitated and immuneblotted with the indicated antibodies. IgG, immunoglobulin.
# Another fundamental issue that we will address as part of the proposed hit-to-lead optimization process is the specificity of the binding of 113B7 to the PDZ1 domain of MDA-9/Syntenin. […] To determine if the PDZin molecule alters physical binding we performed co-immunoprecipitation analysis with c-Src and MDA-9/Syntenin in the presence or absence of 113B7 (FIG. 54). In the case of 113B7, which binds to PDZ1 and the interdomain of MDA-9/Syntenin, no inhibition of c-Src binding was evident.
# [4] = toxicity in vivo in pre-clinical animal models; settings: listed as PDZ1i
# [5] = Balb/c, mouse, plasma, IP 30 mg/kg
# [6] = Balb/c, mouse, plasma, IP 30 mg/kg, read-out: Plasma Concentration, Mean IP
# [7] = Balb/c, mouse, plasma, IV 3 mg/kg, read-out: Plasma Concentration, Mean IV
smiles,measurement,setting,value
"Cc1cc(NC(=O)c2nc3[nH]c4c(c(=O)n3n2)CCC4)c(C)cc1NC(=O)CCc1nnc(-c2ccccc2)o1 [113B7, N-(2,5-dimethyl-4-(3-(5-phenyl-1,3,4-oxadiazol-2-yl)propanamido)phenyl)-8-oxo-5,6,7,8-tetrahydro-4H-cyclopenta[d][1,2,4]triazolo[1,5-a]pyrimidine-2-carboxamide]",signs of toxicity during the PK experiment,"[1]; 3.0 mg/Kg IV and 30.0 mg/Kg IP, mice",lack of adverse signs of toxicity
same,half-life,"[1]; Balb/c, mouse, intravenous, intraperitoneal, in each route: 3.0 mg/Kg IV and 30.0 mg/Kg IP, mice, serum, read-out: T1/2 (very slow clearance)",> 9 h
same,bioavailability,"[1]; Balb/c, mouse, plasma, intraperitoneal, 30 mg/kg, IP 30 mg/kg versus IV 3 mg/kg, read-out: Bioavailability (IP/IV)",81.2%
same,AUC,"[1]; Balb/c, mouse, plasma, ip, 30 mg/kg, IP 30 mg/kg, read-out: AUC0-int (first line)",975 µg·h/mL
same,AUC,"[1]; Balb/c, mouse, plasma, ip, 30 mg/kg, IP 30 mg/kg, read-out: AUC0-int (second line)",1180 µg·h/mL
same,AUC,"[1]; Balb/c, mouse, plasma, iv, 3 mg/kg, IV 3 mg/kg, read-out: AUC0-int (first line)",120 µg·h/mL
same,AUC,"[1]; Balb/c, mouse, plasma, iv, 3 mg/kg, IV 3 mg/kg, read-out: AUC0-int (second line)",124 µg·h/mL
same,Cmax,[1]; [5],98200 ng/mL
same,Tmax,[1]; [5],0.25 h
same,concentration at 0.25 h,[1]; [6],98200 ng/mL
same,concentration at 1 h,[1]; [6],69200 ng/mL
same,concentration at 2 h,[1]; [6],59000 ng/mL
same,concentration at 6 h,[1]; [6],54600 ng/mL
same,concentration at 12 h,[1]; [6],42800 ng/mL
same,concentration at 24 h,[1]; [6],15100 ng/mL
same,half-life,"[1]; Balb/c, mouse, plasma, IP 30 mg/kg, read-out: T1/2 (converted)",9.42 h
same,C0,"[1]; Balb/c, mouse, plasma, IV 3 mg/kg",35000 ng/mL
same,concentration at 0.25 h,[1]; [7],29500 ng/mL
same,concentration at 1 h,[1]; [7],17700 ng/mL
same,concentration at 2 h,[1]; [7],11600 ng/mL
same,concentration at 6 h,[1]; [7],6110 ng/mL
same,concentration at 12 h,[1]; [7],3360 ng/mL
same,concentration at 24 h,[1]; [7],541 ng/mL
same,half-life,"[1]; Balb/c, mouse, plasma, IV 3 mg/kg, read-out: T1/2 (converted)",5.06 h
same,half-life,"[1]; Balb/c, mouse, serum, intravenous and intraperitoneal, in vivo, read-out: half-life (t1/2) (converted)",9 h
same,bioavailability,"[1]; Balb/c, mouse, serum, ip, 30 mg/kg, administered I.P. 30.0 mg/Kg, mice, read-out: bioavailability",80%
same,bioavailability,"[1]; administered I.P. 30.0 mg/Kg, mice, 30 mg/kg",~100%
same,survival,[2]; PDZ1i 30 mg/kg IP three times per wk,significantly increased
same,tumor size and demarcation,"[2]; cells pretreated with PDZ1i, 7 d post intracranial injection",noticeably smaller and more demarcated neoplasms
same,c-Src binding to MDA-9/Syntenin,[3],no inhibition
same,toxicity / tolerability in vivo,[4],well-tolerated; also recorded: no apparent toxicity
